In patent US20190119282A1, “IMIDAZOPYRIDAZINES USEFUL AS INHIBITORS OF THE PAR-2 SIGNALING PATHWAY” (Vertex Pharmaceuticals Incorporated, priority 2013, published 2019):
pIC50: −log10 of the molar value.

Legend:
[1] = target: T1, PAR2 (HT-29 cells, trypsin activation) (Homo sapiens, UniProt P55085); assay: Ca FLIPR TETRA assay, ANTAGONIST mode, stimulation with 3.1 U/mL trypsin; format: cell-based; conditions: HT-29 cells, antagonist mode, stimulation with 3.1 U/mL trypsin
T1 construct: host or cells: HT-29 cells
T1 sequence (P55085 26-397): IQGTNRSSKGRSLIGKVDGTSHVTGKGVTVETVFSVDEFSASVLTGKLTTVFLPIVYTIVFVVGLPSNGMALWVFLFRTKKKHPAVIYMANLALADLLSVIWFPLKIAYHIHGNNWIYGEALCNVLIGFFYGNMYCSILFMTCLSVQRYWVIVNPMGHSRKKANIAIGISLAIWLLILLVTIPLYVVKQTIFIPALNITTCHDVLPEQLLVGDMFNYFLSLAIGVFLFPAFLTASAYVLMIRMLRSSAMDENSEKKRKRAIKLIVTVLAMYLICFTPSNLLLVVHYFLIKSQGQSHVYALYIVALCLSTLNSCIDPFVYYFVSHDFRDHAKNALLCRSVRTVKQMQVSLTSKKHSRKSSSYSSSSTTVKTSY
Outline: (§1)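 Cells plated overnight at 37 °C, 5% CO2 in 1% FBS medium; dye loading 45 min at 37 °C then 15 min r.t.; compound added from DMSO/HBSS dilution; first read for intrinsic Ca2+ activation; 30 min r.t. incubation; antagonist read after addition of the fixed activator (8 μM SLIGKV, 1 U/mL thrombin, 3.1 U/mL trypsin or 0.6 μM UTP).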

[2] = tested on: Thrombin-stimulated Ca2+ response in HT-29 cells; assay: Ca FLIPR TETRA assay, ANTAGONIST mode, stimulation with 1 U/mL Thrombin; format: cell-based, human; conditions: Homo sapiens; HT-29 cells, antagonist mode, stimulation with 1 U/mL Thrombin
Outline: as §1

[3] = target: T2, PAR2 (HT-29 cells, SLIGKV activation) (Homo sapiens, UniProt P55085); assay: Ca FLIPR TETRA assay, ANTAGONIST mode, stimulation with 8 μM SLIGKV; format: cell-based; conditions: HT-29 cells, antagonist mode, stimulation with 8 μM SLIGKV
T2 construct: host or cells: HT-29 cells
T2 sequence (P55085 26-397): T1 sequence (P55085 26-397)
Outline: as §1

[4] = tested on: UTP-stimulated Ca2+ response in HT-29 cells; assay: Ca FLIPR TETRA assay, ANTAGONIST mode, stimulation with 0.6 μM UTP; format: cell-based, human; conditions: Homo sapiens; HT-29 cells, antagonist mode, stimulation with 0.6 μM UTP
Outline: as §1

Compound	pIC50 [1]	pIC50 [2]	pIC50 [3]	pIC50 [4]
CC(C)c1cc(-c2ccc(OC(F)(F)F)cc2)nn2cc(C(=O)N3CCN(C(=O)C(C)(C)O)CC3(C)C)nc12 [Compound I-219]	6.44	< 6.00	6.85	< 6.00
CC(C)c1cc(-c2ccc(C#N)cc2)nn2cc(C(=O)N3CCN(C(=O)C(C)(C)O)CC3(C)C)nc12 [Compound I-220]	6.06	< 6.00	6.12	< 6.00
CC(C)c1cc(-c2ccc(F)c(F)c2)nn2cc(C(=O)N3CCN(C(=O)C(C)(C)O)CC3(C)C)nc12 [Compound I-221]	7.40	< 6.00	7.63	< 6.00
CC(C)c1cc(-c2ccc(F)c(C(F)(F)F)c2)nn2cc(C(=O)N3CCN(C(=O)C(C)(C)O)CC3(C)C)nc12 [Compound I-222]	6.69	< 6.00	6.96	< 6.00
Cc1cc(-c2cc(C(C)C)c3nc(C(=O)N4CCN(C(=O)C(C)(C)O)CC4(C)C)cn3n2)ccc1F [Compound I-223]	7.57	< 6.00	7.79	< 6.00
CC(C)c1cc(-c2cc(F)cc(F)c2)nn2cc(C(=O)N3CCN(C(=O)C(C)(C)O)CC3(C)C)nc12 [Compound I-224]	6.79	< 6.00	6.96	< 6.00
C[C@H]1CN(C(=O)c2cn3nc(-c4ccc(F)cc4)cc(C(C)(C)C)c3n2)C(C)(C)C(=O)N1 [Compound I-226]	6.12	< 6.00	6.28	< 6.00
CC(C)c1cc(-c2ccc(F)cc2)nn2cc(C(=O)N3CCN(C(=O)c4ccncn4)CC3(C)C)nc12 [Compound I-236]	7.73	< 6.00	8.09	< 6.00
CC(C)c1cc(-c2ccc(F)cc2)nn2cc(C(=O)N3CCN(C(=O)c4nc[nH]n4)CC3(C)C)nc12 [Compound I-237]	7.85	< 6.00	8.24	< 6.00
Cn1nnnc1N1CCN(C(=O)c2cn3nc(-c4ccc(F)cc4)cc(C(C)(C)C)c3n2)C(C)(C)C1=O [Compound I-248]	7.23	< 6.00	7.25	< 6.00
CC(C)c1cc(-c2cccc(F)c2)nn2cc(C(=O)N3CCN(C(=O)C(C)(C)O)CC3(C)C)nc12 [Compound I-250]	6.89	< 6.00	7.24	< 6.00
Cc1ccc(-c2cc(C(C)C)c3nc(C(=O)N4CCN(C(=O)C(C)(C)O)CC4(C)C)cn3n2)cc1F [Compound I-251]	7.78	< 6.00	8.24	< 6.00
CC(C)c1cc(-c2ccccc2)nn2cc(C(=O)N3CCN(C(=O)C(C)(C)O)CC3(C)C)nc12 [Compound I-253]	6.73	< 6.00	7.04	< 6.00
CC(C)c1cc(-c2ccc(F)c(F)c2)nn2cc(C(=O)N3CCN(C(=O)c4ccncn4)CC3(C)C)nc12 [Compound I-259]	7.78	< 6.00	8.21	< 6.00
Cc1cc(-c2cc(C(C)C)c3nc(C(=O)N4CCN(C(=O)c5ccncn5)CC4(C)C)cn3n2)ccc1F [Compound I-262]	7.84	< 6.00	8.04	< 6.00

Stronger by pIC50 [1], values ahead:

pIC50 [1]	pIC50 [2]	pIC50 [3]	pIC50 [4]	Compound
8.60	6.64	8.89	6.64	CC(C)(O)CN1CCN(C(=O)c2cn3nc(-c4ccc(F)cc4)cc(C(C)(C)C)c3n2)C(C)(C)C1=O [Compound I-225]
9.10	< 6.00	9.30	< 6.00	CC(C)(C)c1cc(-c2ccc(F)cc2)nn2cc(C(=O)N3CCN(C(=O)c4ncc[nH]4)CC3(C)C)nc12 [Compound I-229]
8.26	6.14	8.62	< 6.00	CC(C)(C)c1cc(-c2ccc(F)cc2)nn2cc(C(=O)N3CCN(C(=O)c4cncnc4)CC3(C)C)nc12 [Compound I-230]
8.80	< 6.00	8.96	< 6.00	CC(C)(C)c1cc(-c2ccc(F)cc2)nn2cc(C(=O)N3CCN(C(=O)c4ccncn4)CC3(C)C)nc12 [Compound I-231]
8.17	< 6.00	8.30	< 6.00	CC(CO)N1CCN(C(=O)c2cn3nc(-c4ccc(F)cc4)cc(C(C)(C)C)c3n2)C(C)(C)C1=O (centres unmarked) [Compound I-233]
8.89	< 6.00	9.05	< 6.00	CC(C)(C)c1cc(-c2ccc(F)cc2)nn2cc(C(=O)N3CCN(C#N)C(=O)C3(C)C)nc12 [Compound I-234]
8.96	< 6.00	9.15	6.03	CC(C)(C)c1cc(-c2ccc(F)cc2)nn2cc(C(=O)N3CCN(c4nn[nH]n4)C(=O)C3(C)C)nc12 [Compound I-235]
8.07	< 6.00	8.60	< 6.00	CC(C)c1cc(-c2ccc(F)cc2)nn2cc(C(=O)N3CCN(C(=O)c4ncc[nH]4)CC3(C)C)nc12 [Compound I-238]
8.19	< 6.00	8.49	< 6.00	CC(C)c1cc(-c2ccc(F)cc2)nn2cc(C(=O)N3CCN(C(=O)c4ccn[nH]4)CC3(C)C)nc12 [Compound I-239]
9.52	< 6.00	10.00	< 6.00	CC(C)c1cc(-c2ccc(F)cc2)nn2cc(C(=O)N3CCN(C(=O)C4CC(O)(C(F)(F)F)C4)CC3(C)C)nc12 (centres unmarked) [Compound I-240]
8.11	< 6.00	8.30	< 6.00	Cc1ccc(-c2cc(C(C)C)c3nc(C(=O)N4CCNC(=O)C4(C)C)cn3n2)cc1 [Compound I-242]
8.07	< 6.00	8.39	< 6.00	CC(C)c1cc(-c2ccc(F)c(F)c2)nn2cc(C(=O)N3CCNC(=O)C3(C)C)nc12 [Compound I-243]
9.22	< 6.00	9.52	< 6.00	CC(C)c1cc(-c2ccc(C(F)(F)F)cc2)nn2cc(C(=O)N3CCN(C(=O)[C@H]4C[C@](O)(C(F)(F)F)C4)CC3(C)C)nc12 [Compound I-245]
8.70	< 6.00	8.77	< 6.00	CC(C)c1cc(-c2ccc(C(F)(F)F)cc2)nn2cc(C(=O)N3CCN(C(=O)c4ccn[nH]4)CC3(C)C)nc12 [Compound I-246]
8.15	< 6.00	8.37	< 6.00	CC(C)c1cc(-c2ccc(C(F)(F)F)cc2)nn2cc(C(=O)N3CCN(C(=O)c4ccncn4)CC3(C)C)nc12 [Compound I-247]
9.52	< 6.00	9.70	< 6.00	Cc1ccc(-c2cc(C(C)C)c3nc(C(=O)N4CCN(C(=O)[C@H]5C[C@](O)(C(F)(F)F)C5)CC4(C)C)cn3n2)cc1 [Compound I-254]
8.42	< 6.00	8.44	< 6.00	Cc1ccc(-c2cc(C(C)C)c3nc(C(=O)N4CCN(C(=O)c5ccn[nH]5)CC4(C)C)cn3n2)cc1 [Compound I-255]
7.91	< 6.00	8.21	< 6.00	Cc1ccc(-c2cc(C(C)C)c3nc(C(=O)N4CCN(C(=O)c5ccncn5)CC4(C)C)cn3n2)cc1 [Compound I-256]
9.70	< 7.00	10.00	< 7.00	CC(C)c1cc(-c2ccc(F)c(F)c2)nn2cc(C(=O)N3CCN(C(=O)[C@H]4C[C@](O)(C(F)(F)F)C4)CC3(C)C)nc12 [Compound I-257]
8.72	< 6.00	8.77	< 6.00	CC(C)c1cc(-c2ccc(F)c(F)c2)nn2cc(C(=O)N3CCN(C(=O)c4ccn[nH]4)CC3(C)C)nc12 [Compound I-258]
8.96	< 7.00	9.15	< 7.00	Cc1cc(-c2cc(C(C)C)c3nc(C(=O)N4CCN(C(=O)[C@H]5C[C@](O)(C(F)(F)F)C5)CC4(C)C)cn3n2)ccc1F [Compound I-260]
8.19	< 6.00	8.46	< 6.00	Cc1cc(-c2cc(C(C)C)c3nc(C(=O)N4CCN(C(=O)c5ccn[nH]5)CC4(C)C)cn3n2)ccc1F [Compound I-261]
8.14	6.66	8.19	< 6.00	Cc1ccc(-c2cc(C(C)C)c3nc(C(=O)N4CCN(C(=O)[C@H]5C[C@@](O)(C(F)(F)F)C5)CC4(C)C)cn3n2)cc1 [Compound I-263]
